Results from patent US20240174625A1, “COMPOSITIONS AND METHODS FOR TREATING TAUOPATHIES” (The Regents of the University of California, priority 2021, published 2024).

Experiments:
NPEPPS = biological target: T1, NPEPPS (Homo sapiens, UniProt P55786); experiment: Cell-based NPEPPS activity assay (Q-AMC fluorescence); settings: for EC50: log10 transformed, EC50 = concentration that elevates 50% NPEPPS activity (150% of DMSO baseline), HEK293T cells; for fluorescence change (NPEPPS activity): Q-AMC assay, inhibitors, FIG. 2D
T1 construct: endogenous in cells; host or cells: HEK293T
T1 sequence (P55786 whole entry): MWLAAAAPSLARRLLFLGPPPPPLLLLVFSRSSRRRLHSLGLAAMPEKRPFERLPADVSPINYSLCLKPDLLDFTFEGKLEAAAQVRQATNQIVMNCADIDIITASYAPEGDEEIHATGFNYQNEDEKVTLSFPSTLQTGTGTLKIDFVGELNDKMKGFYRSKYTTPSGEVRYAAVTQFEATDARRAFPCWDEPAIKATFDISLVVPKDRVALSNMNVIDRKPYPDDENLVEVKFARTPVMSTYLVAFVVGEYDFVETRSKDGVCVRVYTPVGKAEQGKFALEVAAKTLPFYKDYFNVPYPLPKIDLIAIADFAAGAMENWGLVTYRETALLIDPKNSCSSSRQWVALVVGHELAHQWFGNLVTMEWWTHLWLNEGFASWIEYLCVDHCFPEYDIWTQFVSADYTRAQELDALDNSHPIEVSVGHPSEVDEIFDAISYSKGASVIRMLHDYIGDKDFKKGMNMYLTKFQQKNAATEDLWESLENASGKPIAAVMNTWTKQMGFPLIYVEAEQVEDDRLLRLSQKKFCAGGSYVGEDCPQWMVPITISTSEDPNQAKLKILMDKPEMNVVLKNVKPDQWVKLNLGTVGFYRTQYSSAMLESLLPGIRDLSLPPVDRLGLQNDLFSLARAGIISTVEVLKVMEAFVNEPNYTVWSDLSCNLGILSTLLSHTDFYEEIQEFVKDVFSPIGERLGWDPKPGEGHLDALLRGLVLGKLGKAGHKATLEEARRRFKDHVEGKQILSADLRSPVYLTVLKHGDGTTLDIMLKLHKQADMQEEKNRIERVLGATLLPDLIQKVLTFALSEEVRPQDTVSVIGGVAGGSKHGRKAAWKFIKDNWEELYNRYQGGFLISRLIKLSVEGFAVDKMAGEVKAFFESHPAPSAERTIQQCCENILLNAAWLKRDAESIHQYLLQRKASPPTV
Experimental: HEK293T cells (AATC) were maintained in a complete media containing DMEM (Gibco 11995-065) in the presence of 10% fetal bovine serum (FBS, Gibco 10082147), […] penicillin and 50 μg/ml streptomycin (Gibco 15140163) at 37° C. with 5% CO2. NPEPPS activity assay was conducted in a fresh-prepared minimal medium containing essential amino acids, vitamin, AlbuMax (Invitrogen 11021-029) in 1×HBS buffer. Black wall, clear bottom 384-well assay plates (Greiner EK-30092) were coated with poly-L-ornithine (0.1 mg/ml, Sigma P3655) overnight and washed once with 1×PBS. 15 μl minimal medium was then added to each well. 250 nL of compounds dissolved in OmniSolve methylsulfoxide (dimethyl sulfoxide, DMSO, Sigma MX1456P) were pinned to each well via Biomek FX^P Liquid Handling Automation (Beckman Coulter) from compound source plates, i.e., either pre-made compound libraries or JMM compounds (20-step, 2-fold dilution) dissolved in OmniSolve DMSO prepared via Biomek automation in 384-well clear V-bottom polypropylene microplates (ThermoScientific 50-823-639). Cells were harvested, resuspended in minimal medium, and seeded at 16,500 cells/15 μl/well in the 384-well assay plates. 24 hrs later, 30 μl 200 μM H-Gln-AMC hydrobromide salt (Q-AMC, Bachem #I-1175) in 1×HBS containing 0.1% DMSO was added into each well. The fluorescent signal at excitation/emission wavelengths of 360/460 nm was measured immediately upon Q-AMC addition and 3 hrs post-Q-AMC. The change in fluorescence is measured as a readout of NPEPPS activity.
To identify small molecules that either increase NPEPPS levels or NPEPPS activity, a cell-based NPEPPS activity assay amenable to high-throughput screening (HTS) by adapting a fluorescent peptidase activity assay^2 was developed. Since NPEPPS is one of the only aminopeptidases capable of cleaving glutamine-peptide bonds^3 and the major aminopeptidase responsible for degradation of poly-glutamine sequences in the brain^4, a fluorogenic compound, glutamine-7-amino-4-methylcoumarin (Q-AMC), was selected as a substrate to measure NPEPPS activity. The peptide bond of Q-AMC is hydrolyzed by NPEPPS to release glutamine and a fluorescent product, 7-amino-4-methylcoumarin (AMC), when Q-AMC is added directly to the cell culture media. This change in fluorescence is measured as a readout of aminopeptidase activity (FIG. 2A). Overexpression of NPEPPS in HEK293T cells results in a significant increase in fluorescence, whereas knock-down or chemical inhibition of NPEPPS decrease fluorescence change (FIG. 2B-D), validating that the changes in fluorescence observed in the Q-AMC-based assay directly correlate with changes in NPEPPS activity. A high-throughput (HTS) screen (201,845 compounds) was conducted at the UCLA MSSR core (FIG. 2E). Follow-up assays and chemical clustering identified three series of compounds with distinct chemical clusters (FIG. 2F).
(§1) To investigate the effects of JMM compounds that enhance NPEPPS activity and assess their cellular toxicity, 139 compounds in the JMM series (i.e., JMM001-JMM139) were tested in dose responses (20-step, 2-fold dilution) using NPEPPS activity and viability assays in HEK293T cells. 76 compounds harboring different modifications produce concentration-dependent enhancement on NPEPPS activity compared to DMSO control (FIG. 4). […] A therapeutic index (TI, a ratio of IC50 over EC50) is used to evaluate the relative safety profiles of the compounds. […] 16 JMM compounds show both improved potency and reduced toxicity (EC50<10 μM and TI>10, Table 1).

HEK293T cells = experiment: Cell viability assay (CellTiter Glo); assay type: cell-based, human; settings: for IC50: Homo sapiens, HEK-293T, log10 transformed, IC50 = concentration that suppresses 50% cell viability, HEK293T cells; for Therapeutic index: ratio of IC50 (cell viability) over EC50 (NPEPPS activity)
Experimental: HEK293T cells (AATC) were maintained in complete media and cell viability assay was conducted in a fresh-prepared minimal medium containing essential amino acids, vitamin, AlbuMax (Invitrogen 11021-029) in 1×HBS buffer. White 384-well assay plates (Greiner EK-30080) were coated with poly-L-ornithine (0.1 mg/ml) overnight and washed once with 1×PBS. 15 μl minimal medium was then added to each well. 250 nl of compounds dissolved in OmniSolve DMSO were pinned to each well via Biomek FX^P Liquid Handling Automation from compound source plates. Cells were harvested, resuspended in minimal medium, and seeded at 16,500 cells/15 μl/well in the 384-well assay plates. 24 hrs later, 25 μl/well CellTiter Glo reagent (Promega G7572) was added into each well, and luminescence (0.5 second integration time) was acquired following manufacture's protocol. Luminescence count normalized to DMSO control is used as a readout of cell viability.
as §1

| Compound | EC50 (NPEPPS) [µM] | fluorescence change (NPEPPS activity) (NPEPPS) | IC50 (HEK293T cells) [µM] | Therapeutic index (HEK293T cells) |
| --- | --- | --- | --- | --- |
| FC(F)(F)c1ccc(CNc2nccc3ccccc23)cc1 [JMM037] | 112 |  | 95.5 | 0.84 |
| COc1ccc(CNc2nsc3c(Br)cccc23)cc1OC [JMM041] | 105 |  | 245 | 2.37 |
| COc1ccc(CN(C)c2nsc3ccc(OC)cc23)cc1 [JMM100] | 79.4 |  | 126 | 1.56 |
| CCCCCCN(Cc1ccc(C(F)(F)F)cc1)c1nsc2ccccc12 [JMM136, N-Hexyl-N-(4-(trifluoromethyl)benzyl)benzo[d]isothiazol-3-amine] | 8.51 |  | 13.5 | 1.60 |
| CC(C)C[C@H](NC(=O)[C@@H](O)[C@H](N)Cc1ccccc1)C(=O)O [bestatin, reference compound] |  | decreases in fluorescence change |  |  |
| Fc1cc(Cl)ccc1CNc1nsc2ccccc12 [JMM022] | 186 |  | 6460 | 34.72 |
| CCN(Cc1ccc(C(F)(F)F)cc1)c1nsc2ccccc12 [JMM092] | 44.7 |  | 126 | 2.84 |
| CC(Nc1nsc2ccccc12)c1cccc2ccccc12 (centres unmarked) [JMM080] | 9.33 |  | 105 | 11.09 |
| COc1ccc(Nc2nsc3ccccc23)cc1OC [JMM025] | 372 |  | 575 | 1.54 |
| CN(C)c1ccc(CNc2nsc3ccccc23)cc1 [JMM019] | 240 |  | 195 | 0.82 |
| COc1ccc(CNc2ncccn2)cc1OC [JMM048] | 525 |  | 562 | 1.09 |
| c1ccc(CNc2nsc3ccccc23)nc1 [JMM058] | 105 |  | 741 | 7.17 |
| O=[N+]([O-])c1ccc(CNc2nsc3ccccc23)cc1 [JMM043] | 81.3 |  | 309 | 3.79 |
| FC(F)(F)c1ccc(CNc2n[nH]c3ccccc23)cc1 [JMM038] | 100 |  | 105 | 1.06 |
| Fc1cccc2c(NC(c3ccccc3)c3ccccc3)nsc12 [JMM057] | 31.6 |  | 151 | 4.85 |
| FC(F)(F)c1ccc(CN(CC2CC2)c2nsc3ccccc23)cc1 [JMM133, N-(Cyclopropylmethyl)-N-(4-(trifluoromethyl)benzyl)benzo[d]isothiazol-3-amine] | 5.5 |  | 20.9 | 3.78 |
| Fc1ccc2snc(NCc3ccc(C(F)(F)F)cc3)c2c1 [JMM139, 5-Fluoro-N-(4-(trifluoromethyl)benzyl)benzo[d]isothiazol-3-amine] | 26.9 |  | 36.3 | 1.36 |
| C#Cc1cccc2c(NCc3ccc(C(F)(F)F)cc3)nsc12 [JMM064] | 30.2 |  | 69.2 | 2.30 |
| COc1ccc(COc2nsc3ccccc23)cc1OC [JMM104] | 105 |  | 63.1 | 0.60 |
| FC(F)(F)Sc1ccc(CNc2nsc3ccccc23)cc1 [JMM081] | 6.31 |  | 66.1 | 10.45 |
| COc1ccc(C[C@H](N)C(=O)N[C@H]2[C@@H](O)[C@H](n3cnc4c(N(C)C)ncnc43)O[C@@H]2CO)cc1 [puromycin, reference compound] |  | decreases in fluorescence change |  |  |

Now from value to molecule, other results behind:

| EC50 (NPEPPS) [µM] | fluorescence change (NPEPPS activity) (NPEPPS) | Compound | IC50 (HEK293T cells) [µM] | Therapeutic index (HEK293T cells) |
| --- | --- | --- | --- | --- |
| 6.46 |  | c1ccc(COc2ccc(CNc3nsc4cnccc34)cc2)cc1 [JMM077] | 61.7 | 9.60 |
| 4.47 |  | Brc1ccc(COc2ccc(CNc3nsc4ccc(OCc5ccccc5)cc34)cc2)cc1 [JMM113, 5-(Benzyloxy)-N-(4-((4-bromobenzyl)oxy)benzyl)benzo[d]isothiazol-3-amine] | 18.6 | 4.18 |
| 40.7 |  | CN(Cc1ccccc1)c1ccc(CNc2nsc3ccc(OCc4ccccc4)cc23)cc1 [JMM125, N-(4-(Benzyl(methyl)amino)benzyl)-5-(benzyloxy)benzo[d]isothiazol-3-amine] | 603 | 14.75 |
| 2.29 |  | CN(Cc1ccc(OCc2ccccc2)cc1)c1nsc2cnccc12 [JMM078] | 49 | 21.66 |
| 4.17 |  | c1ccc(COc2ccc3snc(NCc4ccc(OCC5CC5)cc4)c3c2)cc1 [JMM135, 5-(Benzyloxy)-N-(4-(cyclopropylmethoxy)benzyl)benzo[d]isothiazol-3-amine] | 6.46 | 1.54 |
| 85.1 |  | COc1ccc(CN(C)c2nsc3ccc(OCc4ccccc4)cc23)cc1 [JMM107, 5-(Benzyloxy)-N-(4-methoxybenzyl)-N-methylbenzo[d]isothiazol-3-amine] | 87.1 | 1.04 |
| 5.62 |  | CN(Cc1ccc(OCc2ccc(Cl)cc2)cc1)c1nsc2ccc(OCc3ccccc3)cc12 [JMM108, 5-(Benzyloxy)-N-(4-((4-chlorobenzyl)oxy)benzyl)-N-methylbenzo[d]isothiazol-3-amine] | 40.7 | 7.13 |
| 63.1 |  | N#Cc1ccc(CNc2nsc3ccccc23)cc1 [JMM044] | 417 | 6.68 |
| 46.8 |  | COc1ccc(CNc2nsc3ccc(OCc4ccccc4)cc23)cc1 [JMM099] | 34.7 | 0.74 |
| 129 |  | c1ccc(CNc2nsc3ccccc23)cc1 [JMM009] | 224 | 1.76 |
| 61.7 |  | FC(F)(F)c1ccc(COc2ccc3snc(NCc4ccc(OCc5ccccc5)cc4)c3c2)cc1 [JMM131, N-(4-(Benzyloxy)benzyl)-5-((4-(trifluoromethyl)benzyl)oxy)benzo[d]isothiazol-3-amine] | 355 | 5.78 |
| 148 |  | FC(F)c1ccc(CNc2nsc3ccccc23)cc1 [JMM063] | 195 | 1.33 |
| 7.76 |  | COc1ccc2snc(N(C)Cc3ccc(OCc4ccccc4)cc3)c2c1 [JMM095] | 72.4 | 9.25 |
| 11.5 |  | c1ccc(COc2ccc3snc(NCc4ccc(OCC5CCCCC5)cc4)c3c2)cc1 [JMM127, 5-(Benzyloxy)-N-(4-(cyclohexylmethoxy)benzyl)benzo[d]isothiazol-3-amine] | 15.8 | 1.38 |
| 63.1 |  | Fc1ccc2snc(NCc3ccc(OCc4ccccc4)cc3)c2c1 [JMM130, N-(4-(Benzyloxy)benzyl)-5-fluorobenzo[d]isothiazol-3-amine] | 224 | 3.56 |
